Series [1] deals with Podosphaera leucotricha. The experiment in a line: Podosphaera test (apple)/protective. The class given is in vivo. Particulars: topical, 240 h, protective spray, application rate 100 g/ha, evaluation 10 days after inoculation, read-out: Efficacy in %. As to the method: (§1) [table] To produce a suitable preparation of active compound, 1 part by weight of active compound is mixed with the stated amounts of solvent and emulsifier, and the concentrate is diluted with water to the desired concentration. To test for protective activity, young plants are sprayed with the preparation of active compound at the stated application rate. After the spray coating has dried on, the plants are inoculated with an aqueous spore suspension of the apple mildew pathogen Podosphaera leucotricha. The plants are then placed in a greenhouse at about 23° C. and a relative atmospheric humidity of about 70%. Evaluation is carried out 10 days after the inoculation. 0% means an efficacy which corresponds to that of the control, whereas an efficacy of 100% means that no infection is observed.

Series [2] in a line: logP determination by HPLC on reverse-phase column (EEC Directive 79/831 Annex V.A8). The class given is physicochemical. Particulars: reverse-phase C18 HPLC column. The protocol:
The logP values given in the tables and Preparation Examples above are determined in accordance with EEC Directive 79/831 Annex V.A8 by HPLC (High Performance Liquid Chromatography) on a reverse-phase column (C 18). Temperature: 43° C. In the acidic range, the determination is carried out at pH 2.3 using the mobile phases 0.1% aqueous phosphoric acid and acetonitrile; linear gradient from 10% acetonitrile to 90% acetonitrile. Calibration is carried out using unbranched alkan-2-ones (of 3 to 16 carbon atoms) with known logP values (determination of the logP values by the retention times using linear interpolation between two successive alkanones).

In series [3] the test system is Venturia inaequalis. Description: Venturia test (apple)/protective. It counts as in vivo. Particulars: topical, 240 h, protective spray, application rate 100 g/ha, evaluation 10 days after inoculation, read-out: Efficacy in %. The protocol: as §1, with “conidia” for “spore”, “scab” for “mildew”, “Venturia inaequalis and then remain in an incubation cabin at about 20° C. and 100% relative atmospheric humidity for 1 day.” for “Podosphaera leucotricha.”, “21°” for “23°”, “90%.” for “70%.”

Series [4] has as its system Sphaerotheca fuliginea. Description: Sphaerotheca test (cucumber)/protective. Particulars: Podosphaera fuliginea, topical, 168 h, protective spray, application rate 100 g/ha, evaluation 7 days after inoculation, read-out: Efficacy in %. The class given is in vivo. As to the method:
as §1, with “the Sphaerotheca fuliginea.” for “the apple mildew pathogen Podosphaera leucotricha.”, “out 7” for “out 10”

In series [5] the test system is Alternaria solani. The experiment in a line: Alternaria test (tomato)/protective. It counts as in vivo. Particulars: protective spray, application rate 750 g/ha, evaluation 7 days after inoculation. The protocol: [table] To produce a suitable preparation of active compound, 1 part by weight of active compound is mixed with the stated amounts of solvent and emulsifier, and the concentrated is diluted with water to the desired concentration. To test for protective activity, young tomato plants are sprayed with the preparation of active compound at the stated application rate. 1 day after the treatment, the plants are inoculated with a spore suspension of Alternaria solani and are then kept at 100% relative atmospheric humidity and 20° C. for 24 h. The plants are then kept at 96% relative atmospheric humidity and a temperature of 20° C. Evaluation is carried out 7 days after the inoculation. 0% means an efficacy which corresponds to that of the control, whereas an efficacy of 100% means that no infection is observed.

Where [6] appears, read: pH 2.3, 43° C., preparation examples, read-out: logP (pH 2.3).
Where [7] appears, read: Table 1, 43° C., acidic range pH 2.3, read-out: logP.

Molecules are shown by their SMILES. Read-outs that look alike come from different tables or passages of the source.

With `Cn1cc(C(=O)Nc2c(F)cccc2-c2ccc(Cl)c(Cl)c2)c(C(F)(F)F)n1` [Example 1, N-(3′,4′-dichloro-3-fluoro-1,1′-biphenyl-2-yl)-1-methyl-3-(trifluoromethyl)-1H-pyrazole-4-carboxamide], the pest or weed control at 100 g/ha in series [1], in series [3] and in series [4] was 100% throughout. Further, the chromatographic logP in series [2] (setting [6]) was determined as 3.1. In series [5], this compound showed an Efficacy in % of 100%.

`Cn1cc(C(=O)Nc2c(F)cccc2-c2ccc(F)c(Cl)c2)c(C(F)(F)F)n1` [Example 2]: the chromatographic logP in series [2] (setting [6]) is 3.04. This compound also yielded an Efficacy in % in series [5] of 100%.

For the compound `Cn1cc(C(=O)Nc2cc(F)ccc2-c2ccc(Cl)c(Cl)c2)c(C(F)(F)F)n1` [Example 3], the pest or weed control at 100 g/ha in series [1], in series [3] and in series [4] was 100% throughout. In addition, the chromatographic logP in series [2] (setting [7]) was 3.75. The compound also displayed an Efficacy in % in series [5] of 100%.

`Cn1cc(C(=O)Nc2cc(F)ccc2-c2ccc(F)c(Cl)c2)c(C(F)(F)F)n1` [Example 4]: the values for the pest or weed control at 100 g/ha in series [1], in series [3] and in series [4] were 100%, 100% and 99%, respectively. The chromatographic logP in series [2] (setting [7]) was 3.51. Also, the Efficacy in % in series [5] turned out to be 100%.

On to `Cn1cc(C(=O)Nc2ccc(F)cc2-c2ccc(Cl)c(Cl)c2)c(C(F)(F)F)n1` [Example 5], for which the pest or weed control at 100 g/ha in series [1], in series [3] and in series [4] was 100% throughout. For the same compound, the chromatographic logP in series [2] (setting [7]) was determined as 3.57. The compound further showed an Efficacy in % in series [5] of 100%.

For the compound `Cn1cc(C(=O)Nc2ccc(F)cc2-c2ccc(F)c(Cl)c2)c(C(F)(F)F)n1` [Example 6], the pest or weed control at 100 g/ha in series [1] was found to be 100%; in series [3], 100%; in series [4], 98%. Further, in series [2] (setting [7]), the chromatographic logP was 3.26. This compound also gave an Efficacy in % in series [5] of 100%.

Regarding `Cn1cc(C(=O)Nc2c(F)cccc2-c2ccc(Cl)c(Cl)c2)c(C(F)F)n1` [Example 7], the pest or weed control at 100 g/ha in series [1], in series [3] and in series [4] was 100% throughout. The chromatographic logP in series [2] (setting [7]) was 3.1.

Regarding `Cn1cc(C(=O)Nc2cc(F)ccc2-c2ccc(Cl)c(Cl)c2)c(C(F)F)n1` [Example 9], the results for the pest or weed control at 100 g/ha in series [1], in series [3] and in series [4] were 83%, 99% and 94%, respectively. Besides, the chromatographic logP in series [2] (setting [7]) is 3.55.

On to `Cn1cc(C(=O)Nc2cc(F)ccc2-c2ccc(F)c(Cl)c2)c(C(F)F)n1` [Example 10], for which the pest or weed control at 100 g/ha in series [1], in series [3] and in series [4] was 100% each time. Also, the chromatographic logP in series [2] (setting [7]) was found to be 3.29.

Turning to `Cn1cc(C(=O)Nc2ccc(F)cc2-c2ccc(Cl)c(Cl)c2)c(C(F)F)n1` [Example 11], the pest or weed control at 100 g/ha in series [1], in series [3] and in series [4] was 100% throughout. Further, the chromatographic logP in series [2] (setting [7]) came out at 3.33.

In the case of `Cn1cc(C(=O)Nc2ccc(F)cc2-c2ccc(F)c(Cl)c2)c(C(F)F)n1` [Example 12], the pest or weed control at 100 g/ha in series [1], in series [3] and in series [4] was 100% each time. Moreover, the chromatographic logP in series [2] (setting [7]) is 3.07.

On to `Nc1c(F)cccc1-c1ccc(Cl)c(Cl)c1` [Example (III-1), 3′,4′-dichloro-3-fluoro-1,1′-biphenyl-2-amine], for which the chromatographic logP in series [2] (setting [6]) amounted to 4.09.

Consider `Nc1ccc(F)cc1-c1ccc(Cl)c(Cl)c1` [Example (III-2), 3′,4′-Dichloro-5-fluoro-1,1′-biphenyl-2-amine], for which, in series [2] (setting [6]), the chromatographic logP worked out at 3.62.

Consider `Cn1cc(C(=O)Nc2c(F)cccc2Br)c(C(F)(F)F)n1` [Example (IV-1)], for which the chromatographic logP in series [2] (setting [6]) turned out to be 2.12.

Source of the values: patent US7521397B2, “Disubstituted pyrazolyl carboxanilides” (Bayer CropScience AG, priority 2002, dated 2009).
